Measurements as given in publication PMC8309051, “Structure–Activity Relationship and Molecular Docking of a Kunitz-Like Trypsin Inhibitor, Kunitzin-AH, from the Skin Secretion of Amolops hainanensis” (Pharmaceutics, 2021).
Where two headings read alike, the source gives them in different places. Where a SMILES comes first, the peptide text is derived from it. Bridges are numbered along the chain shown (N, C = ends).

Tests used:
bovine trypsin = target: T1, bovine trypsin (Bos taurus, UniProt P00760); experiment: Trypsin inhibition assay (kinetic, substrate Phe-Pro-Arg-AMC); format: biochemical
T1 sequence (P00760 24-246): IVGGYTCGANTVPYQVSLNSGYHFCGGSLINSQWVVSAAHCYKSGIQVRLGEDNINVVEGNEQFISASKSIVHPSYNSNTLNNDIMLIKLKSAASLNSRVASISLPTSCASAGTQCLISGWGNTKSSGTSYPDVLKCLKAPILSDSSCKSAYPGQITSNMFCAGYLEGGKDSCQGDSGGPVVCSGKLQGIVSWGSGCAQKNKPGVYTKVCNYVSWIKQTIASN
Description: The kinetic enzyme assay was performed as described in the previous study. Substrate Phe-Pro-Arg-AMC was employed for investigating the hydrolysis of bovine trypsin. Trypsin working solution (10 µL trypsin stock solution (0.1 µM) + 9.99 mL HCl (1 mM)) and trypsin substrate working solution (50 µL substrate stock solution (Phe-Pro-Arg-AMC) (10 mM) + 9.95 mL PBS) were prepared prior to use. Trypsin inhibition assay contained three groups, namely positive control (20 µL PBS, 180 µL substrate working solution, 10 µL trypsin working solution), blank control (20 µL PBS + 10 µL HCl (1 mM) + 180 µL substrate working solution) and peptide group (20 µL peptide solution with the concentration ranging from 10 to 1000 µM, 180 µL substrate working solution, 10 µL trypsin working solution). The fluorescent strength released from hydrolysis of the substrate was monitored at 37 °C at the wavelength of 460 nm (excitation at 360 nm) in a POLARstar Omega Microplate Reader (B.M.G. Labtech, Offenburg, German). Each concentration of the sample was carried out in triplicate and repeated at least three times.
Peptide concentration ( μM)
Figure S3. The progress curve of inhibition rate in the presence of different concentrations of pep-tides (a) Kunitzin-AH; (b) AH-1363; (c) AH-unoxidized; (d) AH-1447; (e) AH-798; (f) AH-880-I; (g) […]
The Y-axis represented the rate of the fluorescence decay, while the X-axis represented peptide concentrations in µM. The Ki values were calculated by Morrison formula in Prism 6, in […]
Error bars represent standard error of mean
(SEM) of three replicates. […]

horse erythrocytes = experiment: Hemolytic activity assay; format: cell-based; settings: for Hemolysis: 2% horse erythrocytes suspension, 37 °C, two hours
Description: Hemolysis assay was conducted through the incubation of peptides and 2% horse erythrocytes suspension (T.C.S. Biosciences Ltd. Buckingham, UK) at 37 °C for two hours as detailed in the previous study. Afterwards, the positive control (considered as 100% hemolysis of cells) was conducted with 1% Triton X-100 (Sigma, Dorset, UK), while the negative control (0%) was treated with phosphate-buffered saline (PBS). The absorbance values were subsequently measured with a Synergy H.T. plate reader (BioTech, Minneapolis, MN, USA) and calculated by using Gen 5 software at a wavelength of 550 nm.

[1] = Morrison formula, three independent experiments, 37 °C, read-out: Ki Value

Compound	Ki (bovine trypsin; [1]) [µM]	Hemolysis (horse erythrocytes) [µM]	Ki (bovine trypsin) [µM]	hemolytic activity (in words) (horse erythrocytes; normal horse erythrocytes)
N=C(N)NCCC[C@H](N)C(=O)N[C@H]1CSSC[C@@H](C(=O)O)NC(=O)[C@H](Cc2ccccc2)NC(=O)[C@H](CC(N)=O)NC(=O)[C@H](CC(N)=O)NC(=O)[C@H](CCCCN)NC1=O [AH-884, RCKNNFC] (H-RCKNNFC-OH; disulfide 2-7)	133 ± 4.1	>512	–	–
CC(C)[C@H](NC(=O)[C@H](C)N)C(=O)N[C@@H](CCCNC(=N)N)C(=O)N1CCC[C@H]1C(=O)N1CCC[C@H]1C(=O)N[C@@H](Cc1ccccc1)C(=O)N[C@@H](CCCNC(=N)N)C(=O)N[C@H]1CSSC[C@@H](C(=O)O)NC(=O)[C@H](CCCCN)NC(=O)[C@H](C)NC(=O)[C@H](C)NC(=O)[C@H](CCCCN)NC1=O [AH-1447, AVRPPFRCKAAKC] (H-AVRPPFRCKAAKC-OH; disulfide 8-13)	–	>512	349.2 ± 0.93	–
C[C@@H]1NC(=O)[C@H](C)NC(=O)[C@H](CCCCN)NC(=O)[C@@H](NC(=O)[C@@H](N)CCCNC(=N)N)CSSC[C@@H](C(=O)O)NC(=O)[C@H](Cc2ccccc2)NC1=O [AH-798, RCKAAFC] (H-RCKAAFC-OH; disulfide 2-7)	1.76 ± 0.13	>512	–	–
CC(C)[C@H](NC(=O)[C@H](C)N)C(=O)N[C@@H](CCCNC(=N)N)C(=O)N1CCC[C@H]1C(=O)N1CCC[C@H]1C(=O)N[C@@H](Cc1ccccc1)C(=O)N[C@@H](CCCNC(=N)N)C(=O)N[C@@H](CS)C(=O)N[C@@H](CCCCN)C(=O)N[C@@H](C)C(=O)N[C@@H](C)C(=O)N[C@@H](Cc1ccccc1)C(=O)O [AH-1363, AVRPPFRCKAAF] (H-AVRPPFRCKAAF-OH; N-terminus and C-terminus assumed)	–	>512	96.9 ± 1.2	–
CC(C)[C@H](NC(=O)[C@H](C)N)C(=O)N[C@@H](CCCNC(=N)N)C(=O)N1CCC[C@H]1C(=O)N1CCC[C@H]1C(=O)N[C@@H](Cc1ccccc1)C(=O)N[C@@H](CCCNC(=N)N)C(=O)N[C@@H](CS)C(=O)N[C@@H](CCCCN)C(=O)N[C@@H](C)C(=O)N[C@@H](C)C(=O)N[C@@H](Cc1ccccc1)C(=O)N[C@@H](CS)C(=O)O [AH-unoxidized, AVRPPFRCKAAFC] (H-AVRPPFRCKAAFC-OH)	–	>512	59.9 ± 2.82	–
CC(C)[C@H](NC(=O)[C@H](C)N)C(=O)N[C@@H](CCCNC(=N)N)C(=O)N1CCC[C@H]1C(=O)N1CCC[C@H]1C(=O)N[C@@H](Cc1ccccc1)C(=O)N[C@@H](CCCNC(=N)N)C(=O)N[C@H]1CSSC[C@@H](C(=O)O)NC(=O)[C@H](Cc2ccccc2)NC(=O)[C@H](C)NC(=O)[C@H](C)NC(=O)[C@H](CCCCN)NC1=O [Kunitzin-AH, AVRPPFRCKAAFC] (H-AVRPPFRCKAAFC-OH; disulfide 8-13)	–	>512	1.18 ± 0.08	without inducing damage to healthy horse erythrocytes
CC[C@H](C)[C@@H]1NC(=O)[C@H](CCCCN)NC(=O)[C@@H](NC(=O)[C@@H](N)CCCNC(=N)N)CSSC[C@@H](C(=O)O)NC(=O)[C@H](Cc2ccccc2)NC(=O)[C@H]([C@@H](C)CC)NC1=O [AH-880-I, RCKIIFC] (H-RCKIIFC-OH; disulfide 2-7)	16.1 ± 1.2	>512	–	–
